Patent US10071981B2, “Method of priming plants against abiotic stress factors” (Research Foundation of The City University of New York, priority 2014, dated 2018)

Key:
Type in all cases: in vivo
[1] = tested on: Medicago truncatula plants; experiment: Proline content (ninhydrin assay) in leaves of drought-stressed plants; settings: 100 μM, 30% (v/v) MetOH; vs drought-stressed alone samples; FIG. 6
Description: Mature (40 d) Medicago truncatula ecotype Jemalong A17 plants were used for the purposes of this study. These were grown in soil medium under controlled, optimal growth conditions and were then subjected to drought stress. Drought was imposed by withholding watering for 9 d (for detailed growth and stress conditions see Filippou et al., 2011). Both NOSH and NOSH-aspirin were applied at 100 μM concentration by foliar spraying at the start of stress imposition. The hybrid donors were diluted in 70% (v/v) and 30% (v/v) methanol, 20% (v/v) acetone or 20% (v/v) DMSO. Cellular damage was evaluated by lipid peroxidation levels (TBARS content) and hydrogen peroxide (H2O2) content as previously described (Filippou et al., 2011; Tanou et al., 2012), while osmoprotective capacity was evaluated by proline content (ninhydrin assay) as previously described (Antoniou et al., 2013). […] Relative quantification of gene expression and statistical analysis of all qRT-PCR data (pairwise fixed reallocation randomization test) were performed using the REST software according to Pfaffl et al. (2002). […] In addition, proline content was evaluated as proline is a major osmoprotective molecule involved in the defense response of plants to abiotic stress conditions (Filippou et al., 2013b).

[2] = tested on: Medicago truncatula plants; experiment: Real-time RT-PCR gene expression in leaves of drought-stressed plants; settings: pre-treated and stressed vs stressed alone plants; 30% MetOH; FIG. 7
Medicago sativa plants = experiment: Proline content (ninhydrin assay) in leaves of drought-stressed plants; settings: 100 μM; vs drought-stressed alone samples; FIG. 15
Description: Mature (42 d) Medicago sativa plants were used for the purposes of this study. These were grown in soil medium under controlled, optimal growth conditions and were then subjected to drought stress. Drought was imposed by withholding watering until drought symptoms (loss of turgour, wilting, chlorosis) were observed (6 d after stress imposition). Samples were then re-watered to observe recovery potential after 1 day (7 d). Both NOSH and NOSH-aspirin were applied at 100 μM concentration by foliar spraying at the start of stress imposition. The hybrid donors were diluted in 30% (v/v) methanol. Physiological parameters (stomatal conductance and chlorophyll fluorescence) were measured with a DT-Porometer AP4 (Delta-TDevices, Cambridge, UK) and an OptiSci OS-30p chlorophyll fluorometer (Opti-Sciences, Hudson, N.H., USA) respectively (Filippou et al., 2013). Chlorophyll fluorescence (Fv/Fm) of leaves represents the maximum photochemical efficiency of photosystem II (PSII). Cellular damage was evaluated by lipid peroxidation levels (TBARS content), nitric oxide (NO) content (nitrosative stress) and hydrogen peroxide (H2O2) content (oxidative stress) as previously described (Filippou et al., 2011; Tanou et al., 2012), while osmoprotective capacity was evaluated by proline content (ninhydrin assay) as previously described (Antoniou et al., 2013). […]

[3] = tested on: Medicago truncatula plants; experiment: Hydrogen peroxide content in leaves of drought-stressed plants; settings: 100 μM foliar spraying
Description: Mature (40 d) Medicago truncatula ecotype Jemalong A17 plants were used for the purposes of this study. These were grown in soil medium under controlled, optimal growth conditions and were then subjected to drought stress. Drought was imposed by withholding watering for 9 d (for detailed growth and stress conditions see Filippou et al., 2011). Both NOSH and NOSH-aspirin were applied at 100 μM concentration by foliar spraying at the start of stress imposition. The hybrid donors were diluted in 70% (v/v) and 30% (v/v) methanol, 20% (v/v) acetone or 20% (v/v) DMSO. Cellular damage was evaluated by lipid peroxidation levels (TBARS content) and hydrogen peroxide (H2O2) content as previously described (Filippou et al., 2011; Tanou et al., 2012), while osmoprotective capacity was evaluated by proline content (ninhydrin assay) as previously described (Antoniou et al., 2013). Real-time RT-PCR gene expression analysis was carried out using a Biorad IQ5 thermocycler as previously described (Filippou et al., 2013b). Relative quantification of gene expression and statistical analysis of all qRT-PCR data (pairwise fixed reallocation randomization test) were performed using the REST software according to Pfaffl et al. (2002). The actin 11 gene was used as a housekeeping reference gene. […]

[4] = tested on: Arabidopsis thaliana Col-0 plants; experiment: Growth promotion (leaf area, ImageJ leaf series) on MS agar plates; settings: 23 DAS; for true leaf 4 and 5 area: vs control samples
Description: An in vitro experiment was carried out in order to evaluate the potential of NOSH and NOSH-A for growth promotion in terms of leaf area increase in Arabidopsis thaliana plants. Arabidopsis thaliana Col-0 plants were used for the purposes of this study. Seeds were placed on MS agar plates containing 10 μM or 100 μM NOSH or NOSH-A (diluted in 20% (v/v) acetone) which were then incubated in the dark at 4° C. for 4 days for stratification purposes. Appropriate control plates were also prepared. The plates were then placed in a growth chamber and leaves were sampled at 23 DAS (days after sowing). Complete leaf series were examined from seven individual plants per treatment (n=7). A complete leaf series consists of all leaves from each individual plant, starting from the cotyledons and including all true leaves, harvested and examined in order of presence on the plant (from older to younger true leaf). These leaves are excised and placed on agar plates where photographs are taken and leaf areas are calculated using ImageJ software (http://imagej.nih.gov/ij/).

Compound	proline content [1]	FeSOD relative gene expression [2]	P5CR relative gene expression [2]	P5CS relative gene expression [2]	cAPX relative gene expression [2]	proline content (Medicago sativa plants)	H2O2 levels ([3]; 30% (v/v) MetOH, vs drought-stress samples, FIG. 5)	H2O2 content ([3]; 70% (v/v) MetOH, drought 9 d, FIG. 4)	growth induction (macroscopic analysis) ([4]; 10 μM in MS agar)	true leaf 4 and 5 area ([4]; 10 μM, n=7, FIG. 22)	growth induction (macroscopic analysis) ([4]; 100 μM in MS agar)	overall rosette area (total leaf area per plant), increase compared with control plants ([4]; 10 μM, n=7, FIG. 22) [%]	greening of leaves ([4]; MS agar plates, FIGS. 18-21)
O=C(CCCO[N+](=O)[O-])Oc1ccccc1C(=O)Oc1ccc(-c2cc(=S)ss2)cc1 [NOSH-A]	increased proline content	significant induction	significant induction	significant induction	significant suppression	significantly lower proline content	significantly lower H2O2 levels	significantly reversed	visible growth induction	no significant increase	contrarily	–	–
O=C(CCCO[N+](=O)[O-])Oc1ccc(-c2cc(=S)ss2)cc1 [NOSH]	–	–	–	–	–	significantly lower proline content	–	–	visible growth induction	significantly higher	contrarily	37	increased greening
